Common to all, as to type: cell-based
Assay [1] concerns Primary human fibroblasts derived from IPF patients (LL29 cells) treated with TGF-β1. In words: Inhibition of the fibrotic process: αSMA staining in TGF-β1-treated primary human fibroblasts from IPF patients (LL29 cells). To be noted: Fibroblast, 96 h; for EC50: % αSMA-positive LL29 cells, TGF-β1 20 ng/mL, 4 days. The method in brief:
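LL29 IPF-patient fibroblasts in 1% FBS stimulated with TGF-β1 (20 ng/mL) and compound (10 μM–1.87 nM, 0.1% DMSO) for 4 days at 37 °C. SYTOX-positive cells excluded; % αSMA-positive cells imaged, normalized to TGF-β1/DMSO wells; EC50 by nonlinear regression, else % inhibition at 10 μM.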

A further assay concerns SW480 colon cancer cells. In words: Cell viability assay (CellTiter-Blue) in SW480 colon cancer cells. The conditions noted are these: Homo sapiens, 96 h, four days; for EC50: CellTiter-Blue; for inhibition at 10 µM: given where EC50 >10 μM, read-out: percent inhibition at 10 μM. The method in brief: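 SW480 cells (~2×10^3 per well) were exposed to compound for four days at 37 °C/5% CO2, using 8-point 1:3 dilutions from 10 μM to 0.0045 μM in duplicate. Viability was read by resazurin reduction (CellTiter-Blue, ~3 h, Ex 560/Em 590 nm). EC50 came from non-linear regression; above 10 μM, percent inhibition at 10 μM is given.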
Background: Alamar Blue is a resazurin reagent that responds to reducing activity.

Assay [2] has as its system Wnt activity (Sp5-Luc reporter, TCF/LEF binding sites) in SW480 colon carcinoma cells. In words: Screening assay for Wnt activity: Sp5-Luc reporter gene assay in stably transduced SW480 colon carcinoma cells. To be noted: Homo sapiens, overnight incubation, 10-point curve from 10 μM. The procedure, abridged:
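SW480 cells stably transduced with a luciferase reporter driven by an Sp5 promoter of eight TCF/LEF sites were plated at 4,000 cells/well in 1% FBS medium. They were exposed overnight at 37° C to a 10-point 1:3 dilution series from 10 μM (0.1% DMSO). Luminescence was normalized to DMSO for four-parameter EC50, or percent inhibition at 10 μM.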
In general terms: In a reporter assay the amount or activity of a reporter protein is the signal.

The term EC50 denotes the concentration that produces a half-maximal response. A low value points to higher potency in that assay. In general, inhibition refers to the percentage by which the read-out fell short of the control.

Regarding `CC(C)(C)CC(=O)Nc1cncc(-c2ccc3[nH]nc(-c4cc5c(-c6ccsc6)cccc5[nH]4)c3c2)c1` [Compound 296, 3,3-Dimethyl-N-(5-(3-(4-(thiophen-3-yl)-1H-indol-2-yl)-1H-indazol-5-yl)pyridin-3-yl)butanamide], the EC50 in assay [1] was more than 10000 nM; with SW480 colon cancer cells, 970 nM; in assay [2], 455 nM. Also, in assay [1] (at 10 μM, given where EC50 >10 μM, αSMA, LL29 cells, TGF-β1, 4 days, read-out: percent inhibition at 10 μM), the inhibition at 10 µM was 21%.
As to `O=C(Nc1cncc(-c2ccc3[nH]nc(-c4cc5c(-c6ccsc6)cccc5[nH]4)c3c2)c1)C1CCCCC1` [Compound 303, N-(5-(3-(4-(Thiophen-3-yl)-1H-indol-2-yl)-1H-indazol-5-yl)pyridin-3-yl) cyclohexanecarboxamide], the EC50 in assay [1] is 2790 nM; in the assay with SW480 colon cancer cells, more than 10000 nM; in assay [2], 1150 nM. The inhibition at 10 µM in the assay with SW480 colon cancer cells worked out at 15%.
For `Nc1cncc(-c2ccc3[nH]nc(-c4cc5c(-c6ccoc6)cccc5[nH]4)c3c2)c1` [Compound 311, 5-(3-(4-(Furan-3-yl)-1H-indol-2-yl)-1H-indazol-5-yl)pyridin-3-amine], the EC50 in assay [1] worked out at 5040 nM; in the assay on SW480 colon cancer cells, 294 nM; in assay [2] it was 40 nM.
`c1cc(-c2ccoc2)c2cc(-c3n[nH]c4ccc(-c5cncc(CNCC6CCCC6)c5)cc34)[nH]c2c1` [Compound 333, 1-Cyclopentyl-N-((5-(3-(4-(furan-3-yl)-1H-indol-2-yl)-1H-indazol-5-yl)pyridin-3-yl)methyl)methanamine]: the EC50 is 3740 nM in assay [1], more than 10000 nM in the assay with SW480 colon cancer cells and 3760 nM in assay [2]. In addition, the inhibition at 10 µM with SW480 colon cancer cells was 19.1%.
Regarding `Fc1cccc(-c2cccc3[nH]c(-c4n[nH]c5ccc(-c6ccncc6)cc45)cc23)c1` [Compound 18, 3-(4-(3-Fluorophenyl)-1H-indol-2-yl)-5-(pyridin-4-yl)-1H-indazole], the EC50 was 5550 nM in assay [1], more than 10000 nM in the assay with SW480 colon cancer cells and 4620 nM in assay [2]. In the assay on SW480 colon cancer cells, the inhibition at 10 µM amounted to 10.2%.
In the same order, the values of `O=C(Cc1ccccc1)Nc1cncc(-c2ccc3[nH]nc(-c4cc5c(-c6ccoc6)cccc5[nH]4)c3c2)c1` [Compound 318, N-(5-(3-(4-(Furan-3-yl)-1H-indol-2-yl)-1H-indazol-5-yl)pyridin-3-yl)-2-phenylacetamide] are 844 nM, more than 10000 nM, 1120 nM and 31.9%.
